Measurements from ChEMBL document CHEMBL1201862, “PubChem BioAssay data set” (2004).
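Grown in 96-well plates, cells were treated for 48 hours with each compound at five concentrations. Insufficient inhibition: endpoint recorded as highest concentration tested. GI50 marks 50% less growth.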 Calls of active or inactive are those of the source. Cut-off read from the data, not from the text of the source: active = GI50 up to about 1.1 µM and inactive = higher.

Key:
Test in all cases: inhibition of tumour cell growth, NCI panel, 48 h
[1] = test system: A498
[2] = test system: ACHN
[3] = test system: CCRF-CEM
[4] = test system: DMS-114
[5] = test system: HCT-116
[6] = test system: HCT-15
[7] = test system: HT-29
[8] = test system: K562
[9] = test system: NCI-H460
[10] = test system: NCI-H522
[11] = test system: RXF 393
[12] = test system: SF-295
[13] = test system: SF-539
[14] = test system: SK-OV-3
[15] = test system: SNB-75
[16] = test system: U-251
[17] = test system: UO-31
[18] = test system: Hs-578T
[19] = test system: MDA-MB-231
[20] = test system: MDA-N

Row | SMILES | GI50 [1] | GI50 [2] | GI50 [3] | GI50 [4] | GI50 [5] | GI50 [6] | GI50 [7] | GI50 [8] | GI50 [9] | GI50 [10] | GI50 [11] | GI50 [12] | GI50 [13] | GI50 [14] | GI50 [15] | GI50 [16] | GI50 [17] | GI50 [18] | GI50 [19] | GI50 [20]
1 | c1coc(CNc2[nH]cnc3nncc2-3)c1 | > 100 µM (inactive) | > 100 µM (inactive) | > 100 µM (inactive) | 44.5 µM (inactive) | > 100 µM (inactive) | > 100 µM | > 100 µM (inactive) | 57.8 µM (inactive) | > 100 µM (inactive) | > 100 µM (inactive) | > 100 µM (inactive) | > 100 µM (inactive) | > 100 µM (inactive) | > 100 µM (inactive) | 38.5 µM (inactive) | > 100 µM (inactive) | 70.3 µM (inactive) |  |  | 
2 | Cc1ccc(C(=O)O/N=C2/CCC/C2=C\c2ccccc2)cc1 | > 100 µM (inactive) | > 100 µM (inactive) | > 100 µM (inactive) | > 100 µM (inactive) | > 100 µM (inactive) | > 100 µM | > 100 µM (inactive) | > 100 µM (inactive) | > 100 µM (inactive) | > 100 µM (inactive) | > 100 µM (inactive) | > 100 µM (inactive) | > 100 µM (inactive) | > 100 µM (inactive) | 69.3 µM (inactive) | > 100 µM (inactive) | > 100 µM (inactive) |  |  | 
3 | COc1ccc(/C=C/C(=O)c2sc(Nc3ccc([N+](=O)[O-])cc3)nc2C)cc1 | 83.8 µM (inactive) | 38.6 µM (inactive) | 25.6 µM (inactive) | 31.3 µM (inactive) |  | 34.4 µM |  | 22.1 µM (inactive) | 44.6 µM (inactive) | 18.2 µM (inactive) | 23.1 µM (inactive) | 23.3 µM (inactive) | 59.7 µM (inactive) | > 100 µM (inactive) | 43.5 µM (inactive) | 65.2 µM (inactive) | 25.4 µM (inactive) |  |  | 
4 | Cn1c(CBr)nc2c1C(=O)c1nc(CBr)[nH]c(=O)c1C2=O | > 100 µM (inactive) | > 100 µM (inactive) | 40.5 µM (inactive) | > 100 µM (inactive) | > 100 µM (inactive) | > 100 µM | > 100 µM (inactive) | > 100 µM (inactive) | > 100 µM (inactive) | > 100 µM (inactive) | > 100 µM (inactive) | > 100 µM (inactive) | > 100 µM (inactive) | > 100 µM (inactive) |  | > 100 µM (inactive) | > 100 µM (inactive) |  |  | 
5 | C#CCN(N=O)C(=O)NCCCC(NC(C)=O)C(=O)NCc1ccccc1 (stereo unspecified) | > 100 µM (inactive) | 56.2 µM (inactive) | 11.3 µM (inactive) | > 100 µM (inactive) | 73.6 µM (inactive) | > 100 µM | > 100 µM (inactive) | 43.3 µM (inactive) | 28.8 µM (inactive) | 29.9 µM (inactive) | > 100 µM (inactive) | > 100 µM (inactive) | 96.2 µM (inactive) | > 100 µM (inactive) | 96.8 µM (inactive) | > 100 µM (inactive) | > 100 µM (inactive) |  |  | 
6 | COc1cc2c(cc1OC)[C@H]1CN3CCC[C@H]3C=C1c1ccc(OC)c(O)c1-2 | < 0.0001 µM (active) | 0.000566 µM (active) | 0.000422 µM (active) | < 0.0001 µM (active) | 0.000452 µM (active) | 0.000549 µM | 0.000656 µM (active) | 0.000512 µM (active) | 0.000558 µM (active) | 0.000487 µM (active) | 0.00667 µM (active) | < 0.0001 µM (active) | 0.000711 µM (active) | < 0.0001 µM (active) | 0.000566 µM (active) | 0.000605 µM (active) | 0.000959 µM (active) | 0.00192 µM (active) | 0.00378 µM (active) | 0.00346 µM (active)
7 | CN1c2c(O)nc(N)nc2NCC1CCNc1ccc(C(=O)NC(CCC(=O)O)C(=O)O)cc1 (stereo unspecified) | 948 µM (inactive) | 45.4 µM (inactive) | 62.5 µM (inactive) | 294 µM (inactive) | 28.8 µM (inactive) | 1430 µM | 19.6 µM (inactive) | 4.13 µM (inactive) | 35.6 µM (inactive) | 423 µM (inactive) | 1010 µM (inactive) | 187 µM (inactive) | 132 µM (inactive) | 678 µM (inactive) | 553 µM (inactive) | 32.4 µM (inactive) | 1310 µM (inactive) | 2120 µM (inactive) | 1530 µM (inactive) | 112 µM (inactive)
8 | CCCCCCCC(=O)OC(CBr)COC(=O)C(C)(C)C (stereo unspecified) | > 100 µM (inactive) | > 100 µM (inactive) | 33 µM (inactive) | > 77.1 µM (inactive) | > 63.4 µM (inactive) | > 100 µM | > 88.5 µM (inactive) | 32.5 µM (inactive) | > 100 µM (inactive) | > 100 µM (inactive) | > 100 µM (inactive) | > 100 µM (inactive) | > 10 µM (inactive) | > 100 µM (inactive) | 12.1 µM (inactive) | > 100 µM (inactive) | > 100 µM (inactive) |  |  | 
9 | CC(C)(C)OP(=O)(OC(C)(C)C)C(O)c1ccc(/C=C(\C#N)C(N)=O)cc1 (stereo unspecified) | > 100 µM (inactive) | > 100 µM (inactive) | > 100 µM (inactive) | > 100 µM (inactive) | > 100 µM (inactive) | > 100 µM | > 100 µM (inactive) | > 100 µM (inactive) | > 100 µM (inactive) | > 100 µM (inactive) | > 100 µM (inactive) | > 100 µM (inactive) | > 100 µM (inactive) | > 100 µM (inactive) | > 100 µM (inactive) | > 100 µM (inactive) | > 100 µM (inactive) |  |  | 
10 | OCC[N+]12CCCN1CCC2 | > 100 µM (inactive) | > 100 µM (inactive) | > 100 µM (inactive) | > 100 µM (inactive) | > 100 µM (inactive) | > 100 µM | > 100 µM (inactive) | > 100 µM (inactive) | > 100 µM (inactive) | > 100 µM (inactive) | > 100 µM (inactive) | > 100 µM (inactive) | > 100 µM (inactive) | > 100 µM (inactive) | 61.7 µM (inactive) | > 100 µM (inactive) | > 100 µM (inactive) |  |  | 
11 | COc1ccc(/C(=N/NC(=O)NN)C(c2ccc(OC)cc2)C2(O)CNc3c(Cl)cc(Cl)cc32)cc1 (stereo unspecified) | > 100 µM (inactive) | > 100 µM (inactive) | 88.9 µM (inactive) | 71.8 µM (inactive) | 50.9 µM (inactive) | > 100 µM | 89.9 µM (inactive) | > 100 µM (inactive) | > 100 µM (inactive) | > 100 µM (inactive) | > 100 µM (inactive) | > 100 µM (inactive) | > 100 µM (inactive) | 81.8 µM (inactive) | > 100 µM (inactive) | > 100 µM (inactive) | > 100 µM (inactive) |  |  | 
12 | O=C1C=C(Br)C(=O)C(Br)=C1 | > 100 µM (inactive) | > 85.5 µM (inactive) | > 50.1 µM (inactive) | > 72.4 µM (inactive) | > 84.9 µM (inactive) | > 79.8 µM | > 100 µM (inactive) | 33.3 µM (inactive) | > 100 µM (inactive) | 67.5 µM (inactive) | > 100 µM (inactive) | > 100 µM (inactive) | > 100 µM (inactive) | > 100 µM (inactive) | > 100 µM (inactive) | > 100 µM (inactive) | > 100 µM (inactive) |  |  | 
13 | CCOC(=O)c1[nH]c(COC(C)=O)c2c1CCCCCCCCCC2 | > 100 µM (inactive) |  | > 100 µM (inactive) | > 100 µM (inactive) | > 100 µM (inactive) | > 100 µM | > 100 µM (inactive) | > 100 µM (inactive) | > 100 µM (inactive) | > 100 µM (inactive) | > 100 µM (inactive) | > 100 µM (inactive) | > 100 µM (inactive) | > 100 µM (inactive) | > 100 µM (inactive) | > 100 µM (inactive) | > 100 µM (inactive) |  |  | 
14 | CN(C)c1ccc(/C=c2\sc3nnc(-c4cccnc4)n3c2=O)cc1 | > 100 µM (inactive) | > 100 µM (inactive) | > 100 µM (inactive) | > 100 µM (inactive) | > 100 µM (inactive) | > 100 µM |  | > 100 µM (inactive) | > 100 µM (inactive) | > 100 µM (inactive) | > 100 µM (inactive) | > 100 µM (inactive) | > 100 µM (inactive) | > 100 µM (inactive) | > 100 µM (inactive) | > 100 µM (inactive) | > 100 µM (inactive) |  |  | 
15 | CSc1nc(NC2OCC(OC(C)=O)C(OC(C)=O)C2OC(C)=O)c(/N=C\C=N\c2c(NC3OCC(OC(C)=O)C(OC(C)=O)C3OC(C)=O)nc(SC)n(C)c2=O)c(=O)n1C (stereo unspecified) | > 100 µM (inactive) | > 100 µM (inactive) |  | > 100 µM (inactive) | > 100 µM (inactive) | > 100 µM | > 100 µM (inactive) | > 100 µM (inactive) | > 100 µM (inactive) | > 100 µM (inactive) | > 100 µM (inactive) | > 100 µM (inactive) | > 100 µM (inactive) | > 100 µM (inactive) | > 100 µM (inactive) | > 100 µM (inactive) | > 100 µM (inactive) |  |  | 
16 | COc1cc(/C=C\c2ccccc2)cc(OC)c1OC | 5.24 µM (inactive) | 6.98 µM (inactive) | 2.99 µM (inactive) | 3.06 µM (inactive) | 4.78 µM (inactive) | 2.6 µM | 2.75 µM (inactive) | 0.514 µM (active) | 2.55 µM (inactive) | 2.67 µM (inactive) | 1.84 µM (inactive) | 2.18 µM (inactive) | 2.56 µM (inactive) |  | 2.1 µM (inactive) | 4.15 µM (inactive) | 4.46 µM (inactive) |  |  | 
